Where “and” joins values, the source holds several entries; their conditions need not be identical. Identical values can stand only once.
How the values were obtained:
[1] = tested on: urogenous smell; experiment: Test Example 1: smell of fresh urine of cats, potassium phytate solution 8mg/ml; type: in vivo; set-up: key to Deodorizing Effects 1st day / Deodorizing Effects 3rd day / Deodorizing Effects 5th day / Deodorizing Effects 7th day / Deodorizing Effects 14th day: 1: No change; 2: Weaken; 3: Almost no recognizable smell
Protocol: A solution containing potassium phytate in an amount of 8mg/ml (Example 1) was administered to cats (5 heads, body weight of about 5kg) in an amount of 3ml/head/day over 14 days. After 1, 3, 5, 7 and 14 days from the first administration, fresh urine was taken with use of a catheter to immediately check a degree of its smell by 3 judges. […]

[2] = tested on: urogenous smell; experiment: Test Example 2: smell of fresh urine of cats, potassium phytate solution 20mg/ml; type: in vivo, crossbred mature cats; set-up: key to Deodorizing Effects 1st day / Deodorizing Effects 3rd day / Deodorizing Effects 5th day / Deodorizing Effects 7th day: 1: No change; 2: Weaken; 3: Almost no recognizable smell; conditions: 20mg/ml solution
Protocol: A solution containing potassium phytate in an amount of 20mg/ml (Example 1) was administered to crossbred mature cats (8 heads, body weight of about 5kg) in an amount of 3ml/head/day over 7 days. After 1, 3, 5 and 7 days from the first administration, fresh urine was taken with use of a catheter to immediately check a degree of its smell by 3 judges. […]

[3] = tested on: urogenous smell; experiment: Test Example 3: smell of fresh urine of cats, potassium phytate/lactose powder in food; type: in vivo, crossbred mature cats; set-up: key to Deodorizing Effects 1st day / Deodorizing Effects 3rd day / Deodorizing Effects 5th day / Deodorizing Effects 7th day: 1: No change; 2: Weaken; 3: Almost no recognizable smell
Protocol: A powder composition was prepared by mixing potassium phytate and lactose, which composition containing the phytate in an amount of 24mg/g. The composition was mixed with a powdered food which was […] by crossbred mature cats (8 heads, body weight of about 5kg) in an amount of 1g/head/day based on the composition over 7 days. After 1, 3, 5 and 7 days from the first administration, fresh urine was taken with use of a catheter to immediately check a degree of its smell by 3 judges. […]

[4] = tested on: urogenous smell; experiment: Test Example 4: smell of fresh urine of cats, cat food containing potassium phytate; type: in vivo, crossbred mature cats; set-up: key to Deodorizing Effects 2nd day / Deodorizing Effects 3rd day / Deodorizing Effects 4th day / Deodorizing Effects 5th day / Deodorizing Effects 7th day: 1: No change; 2: Weaken; 3: Almost no recognizable smell; conditions: cat food with 0.1mg/g
Protocol: To a moisture type cat food, potassium phytate was composed in an amount of 0.1mg/g. The cat food was given to crossbred mature cats (2 heads, body weight of about 5kg) in an amount 100g/day over 7 days. After 2, 3, 4, 5 and 7 days from the first administration, fresh urine was taken with use of a catheter to immediately check a degree of its smell by 3 judges. […]

[5] = tested on: urogenous smell; experiment: Test Example 5: smell of fresh urine of rabbits, potassium phytate in drinking water; type: in vivo; set-up: key to Deodorizing Effects 1st day / Deodorizing Effects 3rd day / Deodorizing Effects 5th day / Deodorizing Effects 7th day / Deodorizing Effects 14th day: 1: No change; 2: Weaken; 3: Almost no recognizable smell
Protocol: An aqueous solution containing potassium phytate in an amount of 20mg/ml was added to 170 ml of drinking water for each experimented animal (rabbits, 2 heads) in amount of 2ml. The resulting drinking water was given for each day over 14 days, so that it can be […] by the animal in free together with their food. After 1, 3, 5, 7 and 14 days from the first giving of the drinking water containing the compound, fresh urine was taken with use of a catheter to immediately check a degree of its smell by 3 judges. […] While, there was no change in a fragrant smell which may be considered due to plant terpenes contained in their food.

[6] = tested on: urogenous smell; experiment: Test Example 6: urogenous smell of hamsters, potassium phytate in drinking water; type: in vivo; conditions: hamsters (2 pairs); 10mg/kg in drinking water over 14 days; checked on finely cut newspaper used as litter
Protocol: An aqueous solution containing potassium phytate in an amount of 20mg/ml was prepared. The solution was added to drinking water for each experimented animal (hamsters, 2 pairs) over 14 days, so that each animal can intake the compound in an amount of 10mg/kg.

[7] = tested on: ozostomy; type: in vivo, normal persons; conditions: 3 judges
Protocol: Following substances generating unpleasant smell were intaken by each panel (3 normal persons) who immediately drinks an aqueous solution of potassium phytinate (105mg/10ml). On contrary thereto, each control panel drinks were drinking water in same amount.
An inspection of ozostmy was carried out from time to time at intervals by 3 judges (to be judged as positive, when 2 or 3 judges feel the unpleasant smell) and by self notification of the experimented person.
Unpleasant smell generating materials : • a) Garlic (10g as grated one), • b) Leek (50g as cooked one), • c) Scallion (50g as pickled one), • d) Onion (100g as grated one), • e) Welsh onion (100g as cooked one), • f) Tobacco (carrying out a functional test by the third party on smokers who smoke more than 50 cigarette per diem), and • g) Alcohol (drink 300ml of Japanese sake, when the stomach of experimented person emties).

[8] = tested on: urogenous smell; experiment: Test Example 10: urogenous smell of rats fed high protein cat food; type: in vivo; set-up: key: Judged by 4 stage judgement of ++, +, ± and −; Judged by 4 stage judgement of ++, +, ± and −; Judged by 4 stage judgement of ++, +, ± and −; Judged by 4 stage judgement of ++, +, ± and −
Protocol: As experimental animal, rats were employed, they had been fed with a cat food of high protein content (30%) to excrete urine with a smell inherent in that of cats. To test group I, potassium phytate was administrated in abdominal cavity at a dose of 3mg/day over 5 days and while, to test group II, the compound was given in the similar to the above but at a dose of 30mg/day. To control group, no compound was given.

[9] = cats, 8mg/ml solution, 3ml/head/day
[10] = cats, powder 24mg/g, 1g/head/day in food
[11] = rabbits, potassium phytate in drinking water
[12] = test group I: 3mg/day in abdominal cavity over 5 days
[13] = test group II: 30mg/day in abdominal cavity over 5 days

O=P(O)(O)O[C@H]1[C@H](OP(=O)(O)O)[C@@H](OP(=O)(O)O)[C@H](OP(=O)(O)O)[C@@H](OP(=O)(O)O)[C@H]1OP(=O)(O)O [potassium phytate, Potassium phytate]
Efficiency 1st day ([1]; cats (5 heads), 8mg/ml solution, 3ml/head/day, 1st day): 0/5
Efficiency 3rd day ([1]; cats (5 heads), 8mg/ml solution, 3ml/head/day, 3rd day): 0/5
Efficiency 5th day ([1]; cats (5 heads), 8mg/ml solution, 3ml/head/day, 5th day): 4/5
Efficiency 7th day ([1]; cats (5 heads), 8mg/ml solution, 3ml/head/day, 7th day): 5/5
Efficiency 14th day ([1]; cats (5 heads), 8mg/ml solution, 3ml/head/day, 14th day): 5/5
deodorizing effect of the compound appears [1, 9]: by third day
urogenous smell was disappeared [1, 9]: on fifth day
similar test repeated ([1]; cats, repeated after 10 days from the final administration): results same with said first test
urogenous smell after the final administration ([1]; cats, several days after the final administration): appeared again
Deodorizing Effects 3rd day ([1]; individual cat, 8mg/ml solution, 3ml/head/day over 14 days, 3rd day): 1 and 2 (4×)
Deodorizing Effects 5th day ([1]; individual cat, 8mg/ml solution, 3ml/head/day over 14 days, 5th day): 2 and 3 (4×)
Deodorizing Effects 7th day ([1]; individual cat, 8mg/ml solution, 3ml/head/day over 14 days, 7th day): 3
Deodorizing Effects 14th day ([1]; individual cat, 8mg/ml solution, 3ml/head/day over 14 days, 14th day): 3
Deodorizing Effects 1st day ([1]; individual cat, 8mg/ml solution, 3ml/head/day over 14 days, fresh urine, 3 judges, 1st day): 1
Efficiency 1st day ([2]; cats (8 heads), 3ml/head/day, 1st day): 0/8
Efficiency 3rd day ([2]; cats (8 heads), 3ml/head/day, 3rd day): 0/8
Efficiency 5th day ([2]; cats (8 heads), 3ml/head/day, 5th day): 8/8
Efficiency 7th day ([2]; cats (8 heads), 3ml/head/day, 7th day): 8/8
deodorizing effect of the compound appears ([2]; cats, 3ml/head/day): by third day
urogenous smell disappeared ([2]; cats, 3ml/head/day): on fifth day
Deodorizing Effects 1st day ([2]; individual cat, 3ml/head/day over 7 days, 1st day): 1 (6×) and 2 (2×)
Deodorizing Effects 3rd day ([2]; individual cat, 3ml/head/day over 7 days, 3rd day): 2
Deodorizing Effects 5th day ([2]; individual cat, 3ml/head/day over 7 days, 5th day): 3
Deodorizing Effects 7th day ([2]; individual cat, 3ml/head/day over 7 days, 7th day): 3
Efficiency 1st day ([3]; cats (8 heads), powder 24mg/g, 1g/head/day in food, 1st day): 0/8
Efficiency 3rd day ([3]; cats (8 heads), powder 24mg/g, 1g/head/day in food, 3rd day): 2/8
Efficiency 5th day ([3]; cats (8 heads), powder 24mg/g, 1g/head/day in food, 5th day): 8/8
Efficiency 7th day ([3]; cats (8 heads), powder 24mg/g, 1g/head/day in food, 7th day): 8/8
deodorizing effect of the compound appears [3, 10]: by third day
urogenous smell disappeared [3, 10]: on fifth day
Deodorizing Effects 1st day ([3]; individual cat, powder with lactose 24mg/g, 1g/head/day in food over 7 days, 1st day): 1 (4×) and 2 (4×)
Deodorizing Effects 3rd day ([3]; individual cat, powder with lactose 24mg/g, 1g/head/day in food, 3rd day): 3 (2×) and 2 (6×)
Deodorizing Effects 5th day ([3]; individual cat, powder with lactose 24mg/g, 1g/head/day in food, 5th day): 3
Deodorizing Effects 7th day ([3]; individual cat, powder with lactose 24mg/g, 1g/head/day in food, 7th day): 3
Efficiency 2nd day ([4]; cats (2 heads), 100g/day, 2nd day): 0/2
Efficiency 3rd day ([4]; cats (2 heads), 100g/day, 3rd day): 1/2
Efficiency 4th day ([4]; cats (2 heads), 100g/day, 4th day): 2/2
Efficiency 5th day ([4]; cats (2 heads), 100g/day, 5th day): 2/2
Efficiency 7th day ([4]; cats (2 heads), 100g/day, 7th day): 2/2
deodorizing effect of the compound appears ([4]; cats, 100g/day): by third day
urogenous smell disappeared ([4]; cats, 100g/day): on forth day
Deodorizing Effects 2nd day ([4]; individual cat, 100g/day over 7 days, 2nd day): 2
Deodorizing Effects 3rd day ([4]; individual cat, 100g/day, 3rd day): 3 and 2
Deodorizing Effects 4th day ([4]; individual cat, 100g/day, 4th day): 3
Deodorizing Effects 5th day ([4]; individual cat, 100g/day, 5th day): 3
Deodorizing Effects 7th day ([4]; individual cat, 100g/day, 7th day): 3
Deodorizing Effects 1st day ([5]; individual rabbit, 2ml of 20mg/ml solution in 170 ml drinking water per day over 14 days, 1st day): 1
Deodorizing Effects 3rd day ([5]; individual rabbit, 2ml of 20mg/ml solution in 170 ml drinking water per day, 3rd day): 2 (3×) and 1
Deodorizing Effects 5th day ([5]; individual rabbit, 2ml of 20mg/ml solution in 170 ml drinking water per day, 5th day): 3 (3×) and 2
Deodorizing Effects 7th day ([5]; individual rabbit, 2ml of 20mg/ml solution in 170 ml drinking water per day, 7th day): 3
Deodorizing Effects 14th day ([5]; individual rabbit, 2ml of 20mg/ml solution in 170 ml drinking water per day, 14th day): 3
Efficiency 1st day ([5]; rabbits, 2ml of 20mg/ml solution in drinking water per day, 1st day): 0/4
Efficiency 3rd day ([5]; rabbits, 2ml of 20mg/ml solution in drinking water per day, 3rd day): 0/4
Efficiency 5th day ([5]; rabbits, 2ml of 20mg/ml solution in drinking water per day, 5th day): 3/4
Efficiency 7th day ([5]; rabbits, 2ml of 20mg/ml solution in drinking water per day, 7th day): 4/4
Efficiency 14th day ([5]; rabbits, 2ml of 20mg/ml solution in drinking water per day, 14th day): 4/4
almost no unpleasant urogenous smell was notified [5, 11]: on fifth day
deodorizing effect of the compound appears [5, 11]: by third day
fragrant smell (considered due to plant terpenes contained in their food) [5, 11]: no change
intensity of the urogenous smell [6]: decreases on several days from the first administration
ozostomy on the test group, first inspection ([7]; aqueous solution 105mg/10ml drunk immediately after intake of smell generating material, 1 hour from the intake): not so strong
ozostomy on the test group, second inspection ([7]; aqueous solution 105mg/10ml, 3 hours from the intake): apparently decreases
Urogenous Smell 3rd day [8, 12]: +
Urogenous Smell 6th day [8, 12]: ±
Urogenous Smell 9th day [8, 12]: +
Urogenous Smell 3rd day [8, 13]: ±
Urogenous Smell 6th day [8, 13]: ±
Urogenous Smell 9th day [8, 13]: +

— patent publication EP0326963B1, “Deodorant as well as deodorizing food, drink and seasoning” (priority 1988, dated 1989)
